IC50 data for one compound are collected here from paper PMC8508980, “Design, Synthesis and Anticancer Profile of New 4-(1H-benzo[d]imidazol-1-yl)pyrimidin-2-amine-Linked Sulfonamide Derivatives with V600EBRAF Inhibitory Effect” (International Journal of Molecular Sciences, 2021).

In test [1] the test system is A375 cells. Nature of the test: Antiproliferative MTT assay. The format is cell-based. The conditions noted are these: Homo sapiens, A-375, 48 h, mean ± S.D. of two experiments. The procedure: (§1) The effect of final target compounds over A375 and SK-MEL-5 was performed using reported procedures (detailed procedure is located in the Supplementary Information page 51s). […]
(§2) Evaluation of the Antiproliferative Activity Against A375 and SK-MEL-5
(§3) A375 and SK-MEL-5 cells were purchased from American Type Culture Collection (ATCC, Ro ckv ille, MD, USA) and maintained in Dulbecco’s modified eagle medium (DMEM, Welgene, Daegu, Republic of Korea) supplemented with 10% fetal bovine serum (FBS, Welgene, Daegu, Republic of Korea) and 1% penicillin/streptomycin (Welgene, Daegu, Republic of Korea) in a hu midified atmo sphere with 5% CO2 at 37 °C. Both cells were taken from culture substrate with 0.05% trypsin-0.02% EDTA and plated at a density of 5 × 10^3 cells/well in 96 well plates and then incubated at 37 °C fo r 24 h in a hu midified atmo sphere with 5% CO2 prior to treatment with various concentrations (3-fold serial dilution, 12 points) of the tested compounds. The cells were incubated for 48 h after treatment with the test compounds. The cell viability was assessed by the conventional 3-(4,5-dimethylthiazol-2-yl)-2,5-diphenyltetrazolium bromide (MTT) reduction assay. MTT assays were carried out with CellTiter 96® (Promega) according to the manufacturer’s instructions. The absorbance at 590 nm was recorded using EnVision 2103 (Perkin Elmer; Bo ston , MA, USA). The IC50 values were calculated using GraphPad Prism 4.0

Test [2] relates to SK-MEL-5 cells. The experiment in a line: Antiproliferative MTT assay. The format is cell-based. The conditions noted are these: Homo sapiens, 48 h, mean ± S.D. of two experiments. The procedure:
as §1, §2, §3

Turning to `CNC(=O)c1cc(Oc2ccc(NC(=O)Nc3ccc(Cl)c(C(F)(F)F)c3)cc2)ccn1` [Sorafenib, reference compound], the IC50 in test [1] was determined as 5.25 ± 0.74 µM; in test [2], 9.22 ± 0.81 µM.
